Results published in patent US11833238B2, “Topical testosterone (T) for promoting hair growth-containing formulations” (priority 2012, dated 2023).

Legend:
eyelash hair growth = experiment: appearance of lashes and hair around the eyes of glaucoma patients administering bimatoprost in only one eye (slit lamp biomicroscope); format: in vivo, human; settings: 0.03% ophthalmic solution, more than 3 months, treated vs control eye
Experimental: A study is initiated to systematically evaluate the appearance of lashes and hair around the eyes of patients who are administering bimatoprost in only one eye. The study involves 10 subjects, 5 male, 5 female, average age 70 years, (ranging from 50-94 years). All patients have glaucoma. Each subject is treated daily by the topical application of one drop of bimatoprost at a dosage of 1.5 µg/ml/eye/day (0.03%, by weight, ophthalmic solution, sold under the names Lumigan® and Latisse® by Allergan, Irvine, Calif., U.S.A.) to the region of one eye by instilling the drop onto the surface of the eye. The region of the fellow control eye is not treated with bimatoprost and served as a control.
In the course of treatment with eye drops, there is typically spontaneous tearing, and excess fluid from the drops and associated tears gathers at the lid margins. In the course of wiping the drug containing fluid from the lid margins and adjacent lid, a thin film of the fluid is routinely spread to contact the adjacent skin of the lid area.
The study is limited to subjects who have administered bimatoprost to one eye for more than 3 months. The mean duration of exposure to bimatoprost prior to assessing the parameter of lash growth between the control and study eye is 129 days (range 90-254 days). Observations are made under high magnification at the slit lamp biomicroscope. Documentation of differences between the control and treatment areas is accomplished using a camera specially adapted for use with the slit lamp biomicroscope. The results of the observations are as follows: Length of lashes: Increased length of eyelashes is regularly observed on the side treated with bimatoprost. The difference in length varies from approximately 10% to as much as 30%. […] In areas where there are a large number of lashes in the control eye, the increased number of lashes in the bimatoprost-treated eye gave the lashes on the treated side a more thickly matted overall appearance. […] These long, thick lash-like hairs were present in the central portion of the lids of several patients in a linear arrangement just above the lash line. Hairs are present at similar locations in the control eyes but are by contrast thinner or more fine in appearance, have less luster and pigment and are more flat against the skin of the lid typical of vellus or intermediate hairs. In several patients, lash-like terminal hairs grow luxuriantly in the medial canthal area in the treated eye. In the corresponding control eye, vellus hairs are seen at the same location. Lash-like hairs are also present in the lateral canthal area of the treated eye but not the control eye in several subjects. […]

[1] = powder; cited from earlier work

CCNC(=O)CCC/C=C\C[C@@H]1[C@@H](/C=C/[C@@H](O)CCc2ccccc2)[C@H](O)C[C@@H]1O [bimatoprost, (Z)-7-[(1R,2R,3R,5S)-3,5Dihydroxy-2-[(1E,3S)-3-hydroxy-5-phenyl-1-pentenyl]cyclopentyl]-5-N-ethylheptenamide]
Auxiliary lash-like hair growth (eyelash hair growth): apparent increase in lash-like hair in transitional areas adjacent to areas of normal lash distribution
Number of lashes (eyelash hair growth): Increased numbers of lashes are observed in the treated eye of each patient
Perpendicular angulation of hairs (eyelash hair growth): leave the surface of the skin at a more acute angle
growth of vellus hair on lids (eyelash hair growth): vellus hairs are increased in number, appear more robust and are much longer and thicker in treated than in control eyes
solubility in ethyl alcohol [1]: very soluble
solubility in methyl alcohol [1]: very soluble
solubility in water [1]: slightly soluble
